Where two headings read alike, the source gives them in different places.
Assays:
[1] = tested on: mouse L1210 leukemia cells; test: Example 1: growth of mouse L1210 leukemia cells with 2,9-DMP, with/without copper and BCS; assay type: cell-based; conditions: for activity at 0.4 µM: at concentrations above about 0.4 μM
Method: The phenanthroline derivative 2,9-DMP was added to a culture of mouse L1210 leukemia cells alone (.smallcircle.), with copper sulfate (.circle-solid.), and with copper sulfate and bathocuproine sulfonate (.quadrature.). The concentrations of copper sulfate and bathocuproine sulfonate used in these experiments were both 25 μM. Methods used to grow the cells and to administer the test compounds were standard methods, well known to ordinary practitioners. The growth of the cells as a percent of control was determined, and the results were plotted in the graph of FIG. 1.

L1210 cells = conditions: 2,9-DMP with copper; cited from earlier work
[2] = tested on: P388 murine lymphocytic leukemia cells; conditions: mice inoculated with P388 cells; 2,9-DMP treatment with copper; cited from earlier work
mouse L1210 cells = conditions: coordinated copper complex, tissue culture; cited from earlier work
L1210 mouse cells = test: Example 3: growth of L1210 mouse cells with bis(halomethyl)phenanthrolines plus copper, with or without BCS; assay type: cell-based; conditions: copper 10 μM, BCS 100 μM
Method: Bis(halomethyl)phenanthroline compounds were synthesized according to the method of Newkome et al., J. Org. Chem., 48, 5112-5114 (1983). Such compounds, namely, 2,9-bis(bromomethyl)phenanthroline and 2,9-bis(chloromethyl)phenanthroline, were added in the presence of copper, but with or without BCS (the copper chelator shown in Examples 1 and 2 to reduce inhibitory activity), to the culture media of L1210 mouse cells, using the same methods of Examples 1 and 2. The concentrations of copper and BCS used in these experiments were 10 μM and 100 μM, respectively. The growth of the cells as a percent of control were determined, and the results plotted in the graph of FIG. 3, wherein open squares (.quadrature.) represent the compound plus copper chelate and solid squares (.box-solid.) represent the compound together with both copper and BCS addition to the culture medium.

[3] = tested on: mouse L1210 leukemia cells; test: Example 2: growth of mouse L1210 leukemia cells with monohalomethyl phenanthrolines, with/without copper and BCS; assay type: cell-based
Method: The aforementioned monohalomethyl compounds were prepared and characterized as described by Newkome et al., J. Org. Chem., 54, 1766-1769 (1989). The compounds were then added to different cultures of mouse L1210 leukemia cells alone (.smallcircle.), with copper sulfate (.quadrature.), with BCS (.circle-solid.), or with BCS and copper sulfate (.box-solid.). The concentrations of copper and BCS used in these experiments were 10 μM and 100 μM, respectively. Methods used to grow the cells and to administer the test compounds were standard methods, well known to ordinary practitioners, and were similar to those used in Example 1. The growth of the cells as a percent of controls were determined, and the results were plotted in the graph of FIG. 2.

For `Cc1ccc2ccc3ccc(C)nc3c2n1` [2,9-DMP, 2,9-dimethyl-1,10-phenanthroline], the activity at 0.4 µM ([1]; Mus musculus, L1210, 2,9-DMP alone, read-out: cell growth as percent of control) was < 20%, the activity at 0.1 µM ([1]; Mus musculus, L1210, with copper ion (copper sulfate 25 μM), at concentrations above about 0.1 μM, read-out: cell growth as percent of control) was < 20% and the activity at 0.4 µM ([1]; Mus musculus, L1210, with copper ion (copper sulfate 25 μM), read-out: cell growth as percent of control) was < 10%. The “concentration inhibiting to the same level (20% of control) relative to copper-chelated monobrominated phenanthroline” value ([1]; copper chelated) was “less than one-tenth of that concentration”, the “inhibitory response of L1210 tumor in implanted animals” value (L1210 cells) was “evident, although weak” and the “increase in life span” value [2] was 45%. The “concentration effective for killing of L1210 cells” value (mouse L1210 cells) was “nanomolar concentrations”.
In the case of `BrCc1ccc2ccc3ccc(CBr)nc3c2n1` [2,9-bis(bromomethyl)-1,10-phenanthroline], the “difference in inhibitory effect, presence vs absence of available copper (BCS)” value (L1210 mouse cells) is reported as “about 10%”.
For `Cc1ccc2ccc3ccc(CBr)nc3c2n1` [2-BM-9-MP, 2-bromomethyl-9-methyl-1,10-phenanthroline], the “inhibitory activity compared with unhalogenated parent compound of Example 1” value [3] was “less than that of the unhalogenated parent compound”.
With `Cc1ccc2ccc3ccc(CCl)nc3c2n1` [2-CM-9-MP, 2-chloromethyl-9-methyl-1,10-phenanthroline] the “inhibitory activity compared with unhalogenated parent compound of Example 1” value [3] was “less than that of the unhalogenated parent compound”.

— US5545639A, “Method of inhibiting transformed cells” (The United States of America as represented by the …, priority 1994, dated 1996)
